The assay addresses GPR17 (Homo sapiens, UniProt Q13304). Put plainly: Calcium mobilization functional assay (GPR17 Ca2+ assay). The format is cell-based. Further details: host or cells: Flp-In T-REx CHO. The conditions noted are these: CHO hGPR17 cells, inhibition of 50 nM MDL29,951, Calcium 5 dye, FLIPR; read-out: Ca2+ assay pIC50 (converted). As for the experimental part:
Flp-In T-REx CHO cells stably expressing human GPR17 receptor (CHO hGPR17) from Evi Kostenis' lab (Bonn University, Germany) were cultured at 37° C. in a humidified atmosphere of 5% CO2. Cells were grown in DMEM with Nutrient Mixture F-12 supplemented with hygromycin B (500 μg/mL) and blasticidin (30 μg/mL). Expression from the Flp-In locus was induced by treatment with doxycycline (1 μg/mL) for 16-20 h prior assays.
GPR17 is a G-protein coupled receptor. GPR17 activation triggers Gq-type G-protein signaling resulting in endoplasmic reticulum calcium (Ca^2+) stores release in cytosol which can be measured using Calcium 5 dye, a fluorescent indicator dye of cytosolic Ca^2+ levels. All Examples were tested in GPR17 Ca^2+ assay to determine (screen) their GPR17 modulating activity.
CHO hGPR17 were defrosted and seeded at a density of 20,000 cells per well into black 384-well plates with clear bottom. Cells were incubated overnight at 37° C. in a humidified atmosphere of 5% CO2. Sixteen to twenty hours after seeding, CHO hGPR17 were loaded for 60 min with Calcium 5 dye, a cytosolic Ca^2+ indicator fluorescent dye, according to manufacturer's instructions. Fluorescent signal relative to cytosolic Ca^2+ concentration was recorded over time at room temperature in FLIPR Tetra reader. […] Then, 50 nM MDL29,951, a GPR17 agonist, was added to the cells. Inhibitory effects of varying concentrations test compounds were measured and resulting plC50s were determined. […] Analysis and curve fitting were performed in ActivityBase XE using XLfit 4-parameter logistic equation y=A+((B−A)/(1+((C/x)^D))) where A, B, C and D stand for minimum y, maximum y, IC50 and slope, respectively.
The activities of the Example compounds tested are depicted in the table in Section B2B below. The activity ranges A, B and C refer to plC50 values in the Ca^2+ assay as follows: “A”: plC50<7.5, “B”: plC50 7.5<x≤ 8.5, “C”: plC50>8.5
For orientation: Calcium flux is commonly read through the fluorescence of an indicator in the cells.
Sequence of GPR17 (Q13304 whole entry): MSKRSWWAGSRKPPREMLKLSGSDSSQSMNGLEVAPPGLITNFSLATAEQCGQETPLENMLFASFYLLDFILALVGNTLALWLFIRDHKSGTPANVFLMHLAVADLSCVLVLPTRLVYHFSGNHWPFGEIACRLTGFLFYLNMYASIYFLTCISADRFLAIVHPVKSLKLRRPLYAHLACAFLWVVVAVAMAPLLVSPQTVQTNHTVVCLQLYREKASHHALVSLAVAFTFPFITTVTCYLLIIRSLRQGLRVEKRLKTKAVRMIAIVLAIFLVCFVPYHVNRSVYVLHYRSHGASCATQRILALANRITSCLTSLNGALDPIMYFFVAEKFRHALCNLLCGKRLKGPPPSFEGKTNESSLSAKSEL
For the compound `COC(=O)c1ccc(NS(=O)(=O)c2c[nH]c3cc(Cl)ccc23)cc1` [Compound I-6, methyl 4-{[(6-chloro-1H-indol-3-yl)sulfonyl]amino}benzoate], the IC50 was greater than 0.0316 µM.
The figure for `O=S(=O)(Nc1ccccc1F)c1c[nH]c2cc(Cl)ccc12` [Compound I-11, 6-chloro-N-(2-fluorophenyl)-1H-indole-3-sulfonamide] is greater than 0.0316 µM; for `Cc1ccc2c(S(=O)(=O)Nc3cccc4c3OCO4)c[nH]c2c1` [Compound I-29, N-(1,3-benzodioxol-4-yl)-6-methyl-1H-indole-3-sulfonamide] it is greater than 0.0316 µM.
As for `N#Cc1ccc2c(S(=O)(=O)Nc3cc(F)c(F)cc3F)c[nH]c2c1` [Compound I-75, 6-cyano-N-(2,4,5-trifluorophenyl)-1H-indole-3-sulfonamide], the IC50 is greater than 0.0316 µM.
With `Cc1cc2c(S(=O)(=O)Nc3ccc(C#N)cc3)c[nH]c2cc1Br` [Compound I-18, 6-bromo-N-(4-cyanophenyl)-5-methyl-1H-indole-3-sulfonamide], the IC50 was 0.00316 to 0.0316 µM.
The figure for `O=S(=O)(Nc1cc2nsnc2cc1F)c1c[nH]c2nc(Cl)ccc12` [Compound I-144, 6-chloro-N-(6-fluoro-2,1,3-benzothiadiazol-5-yl)-1H-pyrrolo[2,3-b]pyridine-3-sulfonamide] is 0.00316 to 0.0316 µM; for `O=S(=O)(Nc1cc(F)ccc1F)c1c[nH]c2ncc(I)cc12` [Compound I-81, N-(2,5-difluorophenyl)-5-iodo-1H-pyrrolo[2,3-b]pyridine-3-sulfonamide] it is greater than 0.0316 µM; for `N#Cc1ccc(NS(=O)(=O)c2c[nH]c3cc4c(cc23)OCO4)cc1` [Compound I-19, N-(4-cyanophenyl)-5H-[1,3]dioxolo[4,5-f]indole-7-sulfonamide] it is greater than 0.0316 µM.
`C#Cc1ccc(NS(=O)(=O)c2c[nH]c3nc(Cl)ccc23)cc1` [Compound I-84, 6-chloro-N-(4-ethynylphenyl)-1H-pyrrolo[2,3-b]pyridine-3-sulfonamide]: the IC50 is greater than 0.0316 µM.
`O=S(=O)(Nc1cc(F)c(F)cc1F)c1c[nH]c2cc(C(F)(F)F)ccc12` [Compound I-54, 6-(trifluoromethyl)-N-(2,4,5-trifluorophenyl)-1H-indole-3-sulfonamide]: the IC50 was greater than 0.0316 µM.
On to `N#Cc1ccc(NS(=O)(=O)c2c[nH]c3cc(F)c(F)cc23)cc1` [Compound I-120, N-(4-cyanophenyl)-5,6-difluoro-1H-indole-3-sulfonamide], for which the IC50 was greater than 0.0316 µM.
The same measure for `Cc1ccc(NS(=O)(=O)c2c[nH]c3c2ccc2ccccc23)c(F)c1` [Compound I-121, N-(2-fluoro-4-methylphenyl)-1H-benzo[g]indole-3-sulfonamide]: greater than 0.0316 µM; for `Cc1ccc2c(S(=O)(=O)Nc3cc(F)c(C#N)cc3F)c[nH]c2c1` [Compound I-187, N-(4-cyano-2,5-difluorophenyl)-6-methyl-1H-indole-3-sulfonamide]: 0.00316 to 0.0316 µM.
The figure for `N#Cc1ccc(NS(=O)(=O)c2c[nH]c3cc(C(F)(F)F)ccc23)cc1` [Compound I-190, N-(4-cyanophenyl)-6-(trifluoromethyl)-1H-indole-3-sulfonamide] is less than 0.00316 µM; for `N#Cc1ccc(NS(=O)(=O)c2c[nH]c3ncc(Cl)cc23)cc1` [Compound I-77, 5-chloro-N-(4-cyanophenyl)-1H-pyrrolo[2,3-b]pyridine-3-sulfonamide] it is greater than 0.0316 µM.
`O=S(=O)(Nc1ccc(Cl)cc1F)c1c[nH]c2c1ccc1ccccc12` [Compound I-45, N-(4-chloro-2-fluorophenyl)-1H-benzo[g]indole-3-sulfonamide]: the IC50 is greater than 0.0316 µM.
Take `O=S(=O)(Nc1cccc2nsnc12)c1c[nH]c2c3c(ccc12)CCC3` [Compound I-74]: the IC50 is greater than 0.0316 µM.
Consider `O=S(=O)(Nc1ccc(Br)c2c1OC(F)(F)O2)c1c[nH]c2cc(Cl)ccc12` [Compound I-130, N-(7-bromo-2,2-difluoro-1,3-benzodioxol-4-yl)-6-chloro-1H-indole-3-sulfonamide], for which the IC50 is greater than 0.0316 µM.
For `O=S(=O)(Nc1cc(F)cc(F)c1)c1c[nH]c2cc(Cl)ccc12` [Compound I-21, 6-chloro-N-(3,5-difluorophenyl)-1H-indole-3-sulfonamide], the IC50 was greater than 0.0316 µM.
Turning to `N#Cc1cc(F)c(NS(=O)(=O)c2c[nH]c3nc(Cl)ccc23)cc1F` [Compound I-176, 6-chloro-N-(4-cyano-2,5-difluorophenyl)-1H-pyrrolo[2,3-b]pyridine-3-sulfonamide], the IC50 is 0.00316 to 0.0316 µM.
The figure for `O=S(=O)(Nc1ccc(F)c2nonc12)c1c[nH]c2cc(Cl)ccc12` [Compound I-197, 6-chloro-N-(7-fluoro-2,1,3-benzoxadiazol-4-yl)-1H-indole-3-sulfonamide] is greater than 0.0316 µM.
The figure for `O=S(=O)(Nc1ccc2c(c1)OCO2)c1c[nH]c2cc(Cl)ccc12` [Compound I-5, N-(1,3-benzodioxol-5-yl)-6-chloro-1H-indole-3-sulfonamide] is greater than 0.0316 µM; for `COc1nc(NS(=O)(=O)c2c[nH]c3c(Br)c(Cl)ccc23)c(F)cc1CC#N` [Compound I-322, 7-bromo-6-chloro-N-[5-(cyanomethyl)-3-fluoro-6-methoxypyridin-2-yl]-1H-indole-3-sulfonamide] it is less than 0.00316 µM.
As to `O=S(=O)(Nc1cc(F)c(F)cc1F)c1c[nH]c2ncc(I)cc12` [Compound I-103, 5-iodo-N-(2,4,5-trifluorophenyl)-1H-pyrrolo[2,3-b]pyridine-3-sulfonamide], the IC50 was greater than 0.0316 µM.
Consider `O=S(=O)(Nc1cccc(F)c1F)c1c[nH]c2cc(Cl)ccc12` [Compound I-205, 6-chloro-N-(2,3-difluorophenyl)-1H-indole-3-sulfonamide], for which the IC50 was greater than 0.0316 µM.
The figure for `O=S(=O)(Nc1ccc2nsnc2c1)c1c[nH]c2c1ccc1ccccc12` [Compound I-157, N-(2,1,3-benzothiadiazol-5-yl)-1H-benzo[g]indole-3-sulfonamide] is 0.00316 to 0.0316 µM.
The figure for `O=S(=O)(Nc1cc(F)ccc1Br)c1c[nH]c2cc(Cl)ccc12` [Compound I-38, N-(2-bromo-5-fluorophenyl)-6-chloro-1H-indole-3-sulfonamide] is greater than 0.0316 µM.
On to `O=S(=O)(Nc1ccc(F)cc1F)c1c[nH]c2nc(Cl)ccc12` [Compound I-86, 6-chloro-N-(2,4-difluorophenyl)-1H-pyrrolo[2,3-b]pyridine-3-sulfonamide], for which the IC50 is greater than 0.0316 µM.
Consider `O=S(=O)(Nc1ccc(S(F)(F)(F)(F)F)cc1)c1c[nH]c2cc(Cl)ccc12` [Compound I-217, 6-chloro-N-[4-(pentafluoro-lambda6-sulfanyl)phenyl]-1H-indole-3-sulfonamide], for which the IC50 is greater than 0.0316 µM.
Regarding `O=S(=O)(Nc1cc(Cl)cc(Cl)n1)c1c[nH]c2cc(Cl)ccc12` [Compound I-40, 6-chloro-N-(4,6-dichloropyridin-2-yl)-1H-indole-3-sulfonamide], the IC50 is greater than 0.0316 µM.
`CS(=O)(=O)c1ccc2c(S(=O)(=O)Nc3cc(F)ccc3F)c[nH]c2c1` [Compound I-28, N-(2,5-difluorophenyl)-6-(methylsulfonyl)-1H-indole-3-sulfonamide]: the IC50 is greater than 0.0316 µM.
`O=S(=O)(Nc1ccc2nsnc2c1)c1c[nH]c2cc(F)ccc12` [Compound I-169, N-(2,1,3-benzothiadiazol-5-yl)-6-fluoro-1H-indole-3-sulfonamide]: the IC50 is greater than 0.0316 µM.
Consider `N#Cc1ccc2c(S(=O)(=O)Nc3cc4c(cc3F)OC(F)(F)O4)c[nH]c2c1` [Compound I-68, 6-cyano-N-(2,2,6-trifluoro-1,3-benzodioxol-5-yl)-1H-indole-3-sulfonamide], for which the IC50 was greater than 0.0316 µM.
For `O=S(=O)(Nc1cccc2nsnc12)c1c[nH]c2ccccc12` [Compound I-106, N-(2,1,3-benzothiadiazol-4-yl)-1H-indole-3-sulfonamide], the IC50 was greater than 0.0316 µM.
`O=S(=O)(Nc1cccc(F)c1Cl)c1c[nH]c2nc(Cl)ccc12` [Compound I-87, 6-chloro-N-(2-chloro-3-fluorophenyl)-1H-pyrrolo[2,3-b]pyridine-3-sulfonamide]: the IC50 is greater than 0.0316 µM.
The same measure for `O=S(=O)(Nc1cc(F)c(F)cc1F)c1c[nH]c2cc(F)ccc12` [Compound I-41, 6-fluoro-N-(2,4,5-trifluorophenyl)-1H-indole-3-sulfonamide]: greater than 0.0316 µM; for `O=S(=O)(Nc1ccc(F)cc1F)c1c[nH]c2ncc(I)cc12` [Compound I-82, N-(2,4-difluorophenyl)-5-iodo-1H-pyrrolo[2,3-b]pyridine-3-sulfonamide]: greater than 0.0316 µM; for `O=S(=O)(Nc1cccc2nsnc12)c1c[nH]c2cc(F)cc(F)c12` [Compound I-166, N-(2,1,3-benzothiadiazol-4-yl)-4,6-difluoro-1H-indole-3-sulfonamide]: greater than 0.0316 µM.

For the origin of these results see US12071404B2, “Aza (indole)-, benzothiophene-, and benzofuran-3-sulfonamides” (UCB Pharma GmbH, priority 2016, dated 2024).
